# From patent US12486251B2 (PHARMABLOCK SCIENCES (NANJING) , INC., priority 2020, dated 2025)
# Target: CBP recombinant proteins (Homo sapiens (Human), UniProt Q92793)
# Experiment: Competitive HTRF assay for affinity to CBP recombinant protein
# Assay type: binding
# Conditions: His-tagged CBP 5 nM, biotin-labeled ligand 50 nM, 1% DMSO
# Description: The affinity of the compounds synthesized in the present patert to the CBP recombinant proteins was determined by competitive HTRF method. His-tagged cyclic adenosine monophosphate response element binding protein (CREB-binding protein, CBP) was expressed in Escherichia coli system and further purified. CBP biotinylated ligands were all self-made. The BL21 star (DE3) competert cells transfected with His-tagged CBP protein genes at N-terminal were cultured at 37° C. for 16 h until the OD value was between 0.6 and 0.8, induced by 0.5 mM of IPTG and cultured overnight. The supernatant of cell lysate was purified by a Ni-ion affinity column and a Superdex75 molecular sieve column sequentially. The purity of resulting CBP proteins was 95%. The fluorescent donor reagent MAb Anti 6HIS—Eu cryptate Gold (Cisbio #61HI2KLA), the receptor reagent Streptavidin-XL665 (#610SAXLA) and the detection buffer (#62SDBRDD) required for HTRF were obtained from CISBIO BIOASSAYS (Codolet, France). Tris(2-carboxyethyl)phosphine hydrochloride (TCEP), sodium chloride, adenosine triphosphate (ATP), Tween-20, dimethylsulfoxide (DMSO), bovine serum albumin (BSA) and HEPES buffer were obtained from SIGMA at the highest level commercially available.
# The general procedure of the competitive HTRF assay for the affinity to CBP recombinant proteins is as follows: 0.05% Tween-20 and 1 mM of TCEP were added immediately before the assay, and the assay was performed in a buffer consisting of 0.1 mg/ml BSA, 50 mM of HEPES and 5 mM of NaCl of pH 7.5. 2.5 μL of compound solution in a determination buffer with 4% DMSO and 5 μL of CBP solution in a determination buffer were added to a white low-volume 384-well microtiter plate, incubated at room temperature for 20 min, and then incubated at room temperature for 40 min by adding 2.5 μL of biotin-labeled ligand solution to the determination buffer. The final concentrations of CBP, biotin-labeled ligand and DMSO were 5 nM, 50 nM and 1%, respectively. Then, 5 μL of MAb Anti 6HIS—Eu cryptate Gold and […] of Streptavidin-XL665 in detection buffers from the manufacturer were added to the mixture, and the mixture was incubated for another 60 min. The final concentration of Streptavidin-XL665 was 12.5 nM, and MAb Anti 6HIS—Eu cryptate Gold was diluted according to the final concentration provided by the supplier. The multimode reader Spark from TECAN (Mannedorf, Switzerland) was used to read the plate to detect the homogeneous time-resolved fluorescence intensity of two groups, in which the excitation wavelength was 320 nm and the emission wavelengths were 665 nm and 620 nm. The IC50 value of the inhibitor was obtained by fitting fluorescence intensity ratios at 665 nm/620 nm with respect to the inhibitor concentration in an S-shaped dose-response curve by using Prism 7 (La Jolla, 15 CA).
# Sequence of CBP recombinant proteins (Q92793 whole entry): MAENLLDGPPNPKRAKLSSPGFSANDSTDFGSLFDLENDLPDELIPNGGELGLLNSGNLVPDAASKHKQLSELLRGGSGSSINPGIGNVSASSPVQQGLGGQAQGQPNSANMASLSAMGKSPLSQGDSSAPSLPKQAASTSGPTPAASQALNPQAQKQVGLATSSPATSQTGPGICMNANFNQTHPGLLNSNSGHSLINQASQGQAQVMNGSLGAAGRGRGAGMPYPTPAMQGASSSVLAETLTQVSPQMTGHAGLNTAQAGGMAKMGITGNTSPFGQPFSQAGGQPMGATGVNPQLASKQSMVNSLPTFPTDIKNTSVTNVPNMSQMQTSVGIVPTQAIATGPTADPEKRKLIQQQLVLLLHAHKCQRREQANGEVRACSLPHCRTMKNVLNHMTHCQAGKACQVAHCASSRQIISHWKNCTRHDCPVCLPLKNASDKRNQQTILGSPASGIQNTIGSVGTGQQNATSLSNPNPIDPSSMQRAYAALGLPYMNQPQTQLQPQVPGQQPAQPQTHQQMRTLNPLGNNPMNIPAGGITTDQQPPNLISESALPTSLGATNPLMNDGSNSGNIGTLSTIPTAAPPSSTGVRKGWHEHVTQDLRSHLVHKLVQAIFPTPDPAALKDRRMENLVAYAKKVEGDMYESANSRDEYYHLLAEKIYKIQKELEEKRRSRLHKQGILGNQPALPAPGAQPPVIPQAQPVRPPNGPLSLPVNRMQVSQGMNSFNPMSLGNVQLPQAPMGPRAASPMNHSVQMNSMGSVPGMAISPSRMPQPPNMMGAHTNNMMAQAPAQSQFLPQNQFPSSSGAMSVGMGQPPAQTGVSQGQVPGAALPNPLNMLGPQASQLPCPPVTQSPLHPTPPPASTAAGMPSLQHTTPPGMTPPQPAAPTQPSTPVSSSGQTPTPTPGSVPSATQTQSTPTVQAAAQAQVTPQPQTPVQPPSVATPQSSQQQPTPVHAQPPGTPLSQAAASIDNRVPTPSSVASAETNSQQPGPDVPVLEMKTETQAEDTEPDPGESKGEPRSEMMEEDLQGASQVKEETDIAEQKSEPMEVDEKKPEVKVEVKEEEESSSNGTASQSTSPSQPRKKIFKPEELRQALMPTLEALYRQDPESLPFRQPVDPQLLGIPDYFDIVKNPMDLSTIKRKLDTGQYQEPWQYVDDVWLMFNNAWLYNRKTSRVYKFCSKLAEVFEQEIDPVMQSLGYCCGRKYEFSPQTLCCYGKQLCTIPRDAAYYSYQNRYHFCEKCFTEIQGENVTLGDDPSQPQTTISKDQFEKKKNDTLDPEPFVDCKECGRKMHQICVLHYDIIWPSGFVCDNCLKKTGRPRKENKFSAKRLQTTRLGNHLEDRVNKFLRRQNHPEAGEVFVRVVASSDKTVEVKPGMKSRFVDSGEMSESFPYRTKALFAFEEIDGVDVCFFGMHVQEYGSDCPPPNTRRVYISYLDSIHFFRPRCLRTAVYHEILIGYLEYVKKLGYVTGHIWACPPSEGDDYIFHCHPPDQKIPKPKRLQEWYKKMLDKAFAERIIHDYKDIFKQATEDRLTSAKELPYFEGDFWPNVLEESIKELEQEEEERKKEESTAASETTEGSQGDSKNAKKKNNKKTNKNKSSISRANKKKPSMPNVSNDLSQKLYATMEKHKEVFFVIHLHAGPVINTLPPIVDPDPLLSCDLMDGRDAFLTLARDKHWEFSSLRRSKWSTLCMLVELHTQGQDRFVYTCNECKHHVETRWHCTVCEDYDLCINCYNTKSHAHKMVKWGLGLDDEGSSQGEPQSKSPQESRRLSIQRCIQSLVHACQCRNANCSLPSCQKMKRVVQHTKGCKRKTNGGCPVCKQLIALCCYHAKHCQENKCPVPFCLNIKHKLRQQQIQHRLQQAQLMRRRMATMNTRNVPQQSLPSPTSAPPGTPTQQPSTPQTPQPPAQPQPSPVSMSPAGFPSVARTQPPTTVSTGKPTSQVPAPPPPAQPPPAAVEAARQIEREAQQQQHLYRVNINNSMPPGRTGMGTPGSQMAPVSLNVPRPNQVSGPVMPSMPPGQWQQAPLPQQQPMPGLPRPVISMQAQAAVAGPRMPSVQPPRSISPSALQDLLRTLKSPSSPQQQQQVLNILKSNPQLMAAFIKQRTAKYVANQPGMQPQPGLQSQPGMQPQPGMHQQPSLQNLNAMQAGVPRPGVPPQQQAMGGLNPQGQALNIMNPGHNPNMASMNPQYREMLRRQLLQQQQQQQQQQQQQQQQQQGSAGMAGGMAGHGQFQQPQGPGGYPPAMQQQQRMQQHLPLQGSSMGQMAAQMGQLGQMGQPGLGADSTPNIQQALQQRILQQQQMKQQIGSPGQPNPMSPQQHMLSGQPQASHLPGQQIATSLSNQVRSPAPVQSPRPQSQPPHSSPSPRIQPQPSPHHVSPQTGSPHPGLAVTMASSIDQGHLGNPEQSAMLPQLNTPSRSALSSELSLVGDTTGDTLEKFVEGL
row,SMILES,IC50
1,"CNC(=O)c1cc2cc(F)cnc2c(N2CCCc3cc(C4CCN(C(C)=O)CC4)c(C(F)F)cc32)n1 [Example 52, 8-[6-(1-acetylpiperidin-4-yl)-7-difluoro-methyl-3,4-dihydro-2H-quinolin-1-yl]-3-fluoro-[1,7] naphthyridine-6-carboxylic acid methylamide]",0.027 µM
2,"CNC(=O)c1cc2cccnc2c(N2CCCc3cc(-c4cnn(C5CN(C)C5)c4)c(C(F)F)cc32)n1 [Example 54, 8-{7-difluoromethyl-6-[1-(1-methyl-azetidin-3-yl)-1H-pyrazol-4-yl]-3,4-dihydro-2H-quinolin-1-yl}-[1,7]naphthyridine-6-carboxylic acid methylamide]",0.011 µM
3,"CNC(=O)c1cc2cccnc2c(N2CCCc3cc(-c4cnn(CC#N)c4)c(C(F)F)cc32)n1 [Example 55, 8-[6-(1-cyanomethyl-1H-pyrazol-4-yl)-7-difluoromethyl-3,4-dihydro-2H-quinolin-1-yl]-[1,7]naphthyridine-6-carboxylic acid methylamide]",0.015 µM
4,"CNC(=O)c1cc2ccccc2c(N2CCCc3cc(-c4cnn(C)c4)c(Cl)cc32)n1 [Example 57, 1-[7-chloro-6-(1-methyl-1H-pyrazol-4-yl)-3,4-dihydro-2H-quinolin-1-yl]-isoquinoline-3-carboxylic acid methylamide]",0.036 µM
5,"CNC(=O)c1cc2c(c(N3CCCc4cc(-c5cnn(C)c5)c(C(F)F)cc43)n1)COC2 [Example 62, 4-(7-(difluoro-methyl)-6-(1-methyl-1H-pyrazol-4-yl)-3,4-dihydroquinolin-1(2H)-yl)-N-methyl-1,3-dihydrofuran [3,4-c]pyridine-6-carboxamide]",0.287 µM
6,"CNC(=O)c1cc2cccnc2c(N2CCOc3cc(-c4cnn(C)c4)c(C(F)F)cc32)n1 [Example 65, 8-[6-difluoromethyl-7-(1-methyl-1H-pyrazol-4-yl)-2,3-dihydro-benzo[1,4]oxazin-4-yl]-[1,7]naphthyridine-6-carboxylic acid methylamide]",0.012 µM
7,"CNC(=O)c1cc2cccnc2c(-c2ccc3c(c2)c(-c2cnn(C)c2)nn3C)n1 [Example 66, 8-[1-methyl-3-(1-methy 1-1H-pyrazol-4-yl)-1H-indazol-5-yl]-[1,7]naphthyridine-6-carboxylic acid methylamide]",0.049 µM

# Continued, values first:
row,IC50,SMILES
1,0.014 µM,"CNC(=O)c1cc2cccnc2c(N2CCCc3cc(-c4cnn(C5CNC5)c4)c(C(F)F)cc32)n1 [Example 53, 8-[6-(1-azetidin-3-yl-1H-pyrazol-4-yl)-7-difluoromethyl-3,4-dihydro-2H-quinolin-1-yl]-[1,7]naphthyridine-6-carboxylic acid methylamide]"
2,0.024 µM,"CNC(=O)Cn1cc(-c2cc3c(cc2C(F)F)N(c2nc(C(=O)NC)cc4ccccc24)CCC3)cn1 [Example 56, 1-[7-difluoromethyl-6-(1-methylcarbamoylmethyl-1H-pyrazol-4-yl)-3,4-dihydro-2H-quinolin-1-yl]-isoquinoline-3-carboxylic acid methylamide]"
3,0.1 µM,"CNC(=O)c1ccc2c(c1)CCCN2c1nc(C(=O)NC)cc2ccccc12 [Example 58, 1-(3-methylcarbamoylisoquinolin-1-yl)-1,2,3,4-tetrahydroquinoline-6-carboxylic acid methylamide]"
4,0.402 µM,"CNC(=O)c1cc2ccccc2c(N2CCCc3cc(CO)ccc32)n1 [Example 59, 1-(6-hydroxymethyl-3,4-dihydro-2H-quinolin-1-yl)-isoquinoline-3-carboxylic acid methylamide]"
5,0.058 µM,"CNC(=O)c1cc2ccccc2c(N2CCOc3cc(-c4cnn(C)c4)ccc32)n1 [Example 60, 1-[7-(1-methyl-1H-pyrazol-4-yl)-2,3-dihydro-benzo[1,4]oxazin-4-yl]-isoquinoline-3-carboxylic acid methylamide]"
6,0.07 µM,"CNC(=O)c1cc2c(c(N3CCCc4cc(-c5cnn(C)c5)c(C(F)F)cc43)n1)CCC2 [Example 61, 1-[7-difluoromethyl-6-(1-methyl-1H-pyrazol-4-yl)-3,4-dihydro-2H-quinolin-1-yl]-6,7-dihydro-5H-[2]pyrazine-3-carboxylic acid methylamide]"
7,0.136 µM,"CNC(=O)c1cc2ccoc2c(N2CCCc3cc(-c4cnn(C)c4)c(C(F)F)cc32)n1 [Example 63, 7-[7-difluoromethyl-6-(1-methyl-1H-pyrazol-4-yl)-3,4-dihydro-2H-quinolin-1-yl]-furan[2,3-c]pyridine-5-carboxylic acid methylamide]"
8,0.014 µM,"CNC(=O)c1cc2ncccc2c(N2CCCc3cc(-c4cnn(C)c4)c(C(F)F)cc32)n1 [Example 64, 5-[7-difluoromethyl-6-(1-methyl-1H-pyrazol-4-yl)-3,4-dihydro-2H-quinolin-1-yl]-[1,6]naphthyridine-7-carboxylic acid methylamide]"
